# Reference: ChEMBL document CHEMBL3885881, “DrugMatrix”
# Organism: Rattus norvegicus
# Experiment: DrugMatrix - Regimen: Daily Repeat
# Type: toxicity, organism-based, Sprague-Dawley
# Design: regimen Daily Repeat, gender Male, age 6-8 weeks
# Details: in vivo, po, route oral GAVAGE, […]; for ABSOLUTE BASOPHIL / ABSOLUTE EOSINOPHIL / ABSOLUTE LYMPHOCYTE / ABSOLUTE MONOCYTE / ABSOLUTE SEGMENTED NEUTROPHIL / BASOPHIL / EOSINOPHIL / ERYTHROCYTE COUNT / HEMATOCRIT / HEMOGLOBIN / LEUKOCYTE COUNT / LYMPHOCYTE / MEAN CORPUSCULAR HEMOGLOBIN / MEAN CORPUSCULAR HEMOGLOBIN CONCENTRATION / MEAN CORPUSCULAR VOLUME / MONOCYTE / NEUTROPHIL / NUCLEATED RED BLOOD CELLS / PLATELET COUNT: tissue Blood; for ALANINE AMINOTRANSFERASE / ALBUMIN / ALKALINE PHOSPHATASE / ASPARTATE AMINOTRANSFERASE / BLOOD UREA NITROGEN / CARBON DIOXIDE / CHLORIDE / CHOLESTEROL / CREATINE PHOSPHOKINASE / CREATININE / GLUCOSE / LACTATE DEHYDROGENASE / LIPASE / PHOSPHORUS / POTASSIUM / SODIUM / TOTAL BILIRUBIN / TOTAL PROTEIN / URIC ACID: tissue Plasma
# [1] = 0 mg/kg, 72 h, dose level Control, time 3 day
# [2] = 0 mg/kg, 120 h, dose level Control, time 5 day
# [3] = 15 mg/kg, 72 h, dose level Low, time 3 day
# [4] = 15 mg/kg, 120 h, dose level Low, time 5 day
compound,measurement,setting,value
CC(C)C(=O)Nc1ccc([N+](=O)[O-])c(C(F)(F)F)c1 [FLUTAMIDE],ABSOLUTE BASOPHIL,[1],0 CELLS/uL
same,ABSOLUTE EOSINOPHIL,[1],13.67 CELLS/uL
same,ABSOLUTE LYMPHOCYTE,[1],10069.5 CELLS/uL
same,ABSOLUTE MONOCYTE,[1],50 CELLS/uL
same,ABSOLUTE SEGMENTED NEUTROPHIL,[1],516.83 CELLS/uL
same,BASOPHIL,[1],0%
same,EOSINOPHIL,[1],0.17%
same,ERYTHROCYTE COUNT,[1],5.44 x10E6/uL
same,HEMATOCRIT,[1],33.88%
same,HEMOGLOBIN,[1],13.23 G/DL
same,LEUKOCYTE COUNT,[1],10.65 x10E3/uL
same,LYMPHOCYTE,[1],94.67%
same,MEAN CORPUSCULAR HEMOGLOBIN,[1],24.37 pg
same,MEAN CORPUSCULAR HEMOGLOBIN CONCENTRATION,[1],39.05 G/DL
same,MEAN CORPUSCULAR VOLUME,[1],62.38 fL
same,MONOCYTE,[1],0.67%
same,NEUTROPHIL,[1],4.5%
same,NUCLEATED RED BLOOD CELLS,[1],0.33 /100WBC
same,PLATELET COUNT,[1],414.5 x10E3/uL
same,ALANINE AMINOTRANSFERASE,[1],72 u/L
same,ALBUMIN,[1],3.75 G/DL
same,ALKALINE PHOSPHATASE,[1],375 u/L
same,ASPARTATE AMINOTRANSFERASE,[1],87.5 u/L
same,BLOOD UREA NITROGEN,[1],14 mg/dL
same,CARBON DIOXIDE,[1],27.5 mmol/L
same,CHLORIDE,[1],95.83 MEQ/L
same,CHOLESTEROL,[1],68.5 mg/dL
same,CREATINE PHOSPHOKINASE,[1],284.33 u/L
same,CREATININE,[1],0.16 mg/dL
same,GLUCOSE,[1],156.67 mg/dL
same,LACTATE DEHYDROGENASE,[1],101.83 u/L
same,LIPASE,[1],9.67 u/L
same,PHOSPHORUS,[1],10.33 mg/dL
same,POTASSIUM,[1],5.22 MEQ/L
same,SODIUM,[1],137.67 MEQ/L
same,TOTAL BILIRUBIN,[1],0.13 mg/dL
same,TOTAL PROTEIN,[1],5.43 G/DL
same,URIC ACID,[1],0.8 mg/dL
same,ABSOLUTE BASOPHIL,[2],0 CELLS/uL
same,ABSOLUTE EOSINOPHIL,[2],20.67 CELLS/uL
same,ABSOLUTE LYMPHOCYTE,[2],11518.33 CELLS/uL
same,ABSOLUTE MONOCYTE,[2],47 CELLS/uL
same,ABSOLUTE SEGMENTED NEUTROPHIL,[2],614 CELLS/uL
same,BASOPHIL,[2],0%
same,EOSINOPHIL,[2],0.17%
same,ERYTHROCYTE COUNT,[2],5.61 x10E6/uL
same,HEMATOCRIT,[2],34.25%
same,HEMOGLOBIN,[2],13.38 G/DL
same,LEUKOCYTE COUNT,[2],12.2 x10E3/uL
same,LYMPHOCYTE,[2],94.33%
same,MEAN CORPUSCULAR HEMOGLOBIN,[2],23.83 pg
same,MEAN CORPUSCULAR HEMOGLOBIN CONCENTRATION,[2],39.08 G/DL
same,MEAN CORPUSCULAR VOLUME,[2],61.03 fL
same,MONOCYTE,[2],0.33%
same,NEUTROPHIL,[2],5.17%
same,NUCLEATED RED BLOOD CELLS,[2],0 /100WBC
same,PLATELET COUNT,[2],941.83 x10E3/uL
same,ALANINE AMINOTRANSFERASE,[2],68.83 u/L
same,ALBUMIN,[2],4.12 G/DL
same,ALKALINE PHOSPHATASE,[2],492.67 u/L
same,ASPARTATE AMINOTRANSFERASE,[2],83.33 u/L
same,BLOOD UREA NITROGEN,[2],14 mg/dL
same,CARBON DIOXIDE,[2],37 mmol/L
same,CHLORIDE,[2],98.67 MEQ/L
same,CHOLESTEROL,[2],56.5 mg/dL
same,CREATINE PHOSPHOKINASE,[2],167.33 u/L
same,CREATININE,[2],0.17 mg/dL
same,GLUCOSE,[2],157.5 mg/dL
same,LACTATE DEHYDROGENASE,[2],104.83 u/L
same,LIPASE,[2],10 u/L
same,PHOSPHORUS,[2],10.43 mg/dL
same,POTASSIUM,[2],5.46 MEQ/L
same,SODIUM,[2],143.87 MEQ/L
same,TOTAL BILIRUBIN,[2],0.17 mg/dL
same,TOTAL PROTEIN,[2],5.72 G/DL
same,URIC ACID,[2],0.85 mg/dL
same,ABSOLUTE BASOPHIL,[3],0 CELLS/uL
same,ABSOLUTE EOSINOPHIL,[3],10.67 CELLS/uL
same,ABSOLUTE LYMPHOCYTE,[3],6470.33 CELLS/uL
same,ABSOLUTE MONOCYTE,[3],86 CELLS/uL
same,ABSOLUTE SEGMENTED NEUTROPHIL,[3],599.67 CELLS/uL
same,BASOPHIL,[3],0%
same,EOSINOPHIL,[3],0.33%
same,ERYTHROCYTE COUNT,[3],5.25 x10E6/uL
same,HEMATOCRIT,[3],32.9%
same,HEMOGLOBIN,[3],13.03 G/DL
same,LEUKOCYTE COUNT,[3],7.17 x10E3/uL
same,LYMPHOCYTE,[3],91.67%
same,MEAN CORPUSCULAR HEMOGLOBIN,[3],24.87 pg
same,MEAN CORPUSCULAR HEMOGLOBIN CONCENTRATION,[3],39.6 G/DL
same,MEAN CORPUSCULAR VOLUME,[3],62.8 fL
same,MONOCYTE,[3],1%
same,NEUTROPHIL,[3],7%
same,NUCLEATED RED BLOOD CELLS,[3],0 /100WBC
same,PLATELET COUNT,[3],851.33 x10E3/uL
same,ALANINE AMINOTRANSFERASE,[3],92 u/L
same,ALBUMIN,[3],3.97 G/DL
same,ALKALINE PHOSPHATASE,[3],441.67 u/L
same,ASPARTATE AMINOTRANSFERASE,[3],111 u/L
same,BLOOD UREA NITROGEN,[3],12.33 mg/dL
same,CARBON DIOXIDE,[3],27.67 mmol/L
same,CHLORIDE,[3],95.5 MEQ/L
same,CHOLESTEROL,[3],77.67 mg/dL
same,CREATINE PHOSPHOKINASE,[3],476.67 u/L
same,CREATININE,[3],0.33 mg/dL
same,GLUCOSE,[3],152 mg/dL
same,LACTATE DEHYDROGENASE,[3],156.33 u/L
same,LIPASE,[3],13.67 u/L
same,PHOSPHORUS,[3],9.97 mg/dL
same,POTASSIUM,[3],5.27 MEQ/L
same,SODIUM,[3],138.85 MEQ/L
same,TOTAL BILIRUBIN,[3],0.17 mg/dL
same,TOTAL PROTEIN,[3],5.23 G/DL
same,URIC ACID,[3],0.7 mg/dL
same,ABSOLUTE BASOPHIL,[4],0 CELLS/uL
same,ABSOLUTE EOSINOPHIL,[4],0 CELLS/uL
same,ABSOLUTE LYMPHOCYTE,[4],8137.67 CELLS/uL
same,ABSOLUTE MONOCYTE,[4],25 CELLS/uL
same,ABSOLUTE SEGMENTED NEUTROPHIL,[4],504 CELLS/uL
same,BASOPHIL,[4],0%
same,EOSINOPHIL,[4],0%
same,ERYTHROCYTE COUNT,[4],6.06 x10E6/uL
same,HEMATOCRIT,[4],36.17%
same,HEMOGLOBIN,[4],13.93 G/DL
same,LEUKOCYTE COUNT,[4],8.67 x10E3/uL
same,LYMPHOCYTE,[4],94%
same,MEAN CORPUSCULAR HEMOGLOBIN,[4],23.03 pg
same,MEAN CORPUSCULAR HEMOGLOBIN CONCENTRATION,[4],38.53 G/DL
same,MEAN CORPUSCULAR VOLUME,[4],59.7 fL
same,MONOCYTE,[4],0.33%
same,NEUTROPHIL,[4],5.67%
same,NUCLEATED RED BLOOD CELLS,[4],0 /100WBC
same,PLATELET COUNT,[4],1066.67 x10E3/uL
same,ALANINE AMINOTRANSFERASE,[4],57 u/L
same,ALBUMIN,[4],4.03 G/DL
same,ALKALINE PHOSPHATASE,[4],326.67 u/L
same,ASPARTATE AMINOTRANSFERASE,[4],78 u/L
same,BLOOD UREA NITROGEN,[4],13.33 mg/dL
same,CARBON DIOXIDE,[4],35.67 mmol/L
same,CHLORIDE,[4],99.33 MEQ/L
same,CHOLESTEROL,[4],75 mg/dL
same,CREATINE PHOSPHOKINASE,[4],234.33 u/L
same,CREATININE,[4],0.18 mg/dL
same,GLUCOSE,[4],140 mg/dL
same,LACTATE DEHYDROGENASE,[4],135.33 u/L
same,LIPASE,[4],9.67 u/L
same,PHOSPHORUS,[4],10.43 mg/dL
same,POTASSIUM,[4],5.86 MEQ/L
same,SODIUM,[4],143.57 MEQ/L
same,TOTAL BILIRUBIN,[4],0.23 mg/dL
same,TOTAL PROTEIN,[4],5.83 G/DL
same,URIC ACID,[4],0.67 mg/dL
